Assay: passive permeability, PAMPA, ADME assay (AID 1508612)
Settings: pH 7.4, 30.0 min, 50.0 µM

NC(=O)c1cccc(-c2cc(Nc3ccc(OC(F)(F)F)cc3)ncn2)c1
Papp: 579 ×10⁻⁶ cm/s

CCOc1ccc(NC(=O)CC2C(=O)N(c3ccc(F)cc3)C(=O)N2CCc2sccc2C)cc1 (centres undefined)
Papp: 927 ×10⁻⁶ cm/s

CC(O)(C#Cc1ccc2c(c1)N(c1nc(N)ncc1Cl)CC2)c1nccs1 (centres undefined)
Papp: 516 ×10⁻⁶ cm/s

CC(C)(C)OC(=O)N1CCN(c2ccc(NCc3ccc(-c4ccc(C#N)cc4)o3)cc2)CC1
Papp: 338 ×10⁻⁶ cm/s

COc1ccc(Cn2c(C(=O)O)c(CNCc3ccco3)c3ccc(C)cc32)cc1
Papp: 654 ×10⁻⁶ cm/s

CCN1CCc2c(sc(NC(=O)Nc3ccc(Cl)c(Cl)c3)c2C(N)=O)C1
Papp: 435 ×10⁻⁶ cm/s

O=C1CCCC2=C1C(c1[nH]ncc1Cl)N=C(Nc1nc3ccc(F)cc3o1)N2 (centres undefined)
Papp: 653 ×10⁻⁶ cm/s

CCN1C(=O)c2ccccc2S(=O)c2ccc(C(=O)NCc3ccc(OC)cc3)cc21 (centres undefined)
Papp: 883 ×10⁻⁶ cm/s

C[C@H]1CN(C(=O)c2nn(C)c3ccccc23)C[C@@H]1c1nc(-c2cccnc2)no1
Papp: 982 ×10⁻⁶ cm/s

Cc1ccc(C2=NN=C(NC(=O)CSc3nncn3C)SC2)cc1
Papp: 147 ×10⁻⁶ cm/s

NC(=O)C1CCN(c2nc(-c3ccc4c(c3)CCO4)cs2)CC1
Papp: > 1000 ×10⁻⁶ cm/s

O=C(NC1CCCc2c1[nH]c1ccccc21)c1ccccc1 (centres undefined)
Papp: 135 ×10⁻⁶ cm/s

COc1cccc(-c2nc(-c3cc4cc(OC)ccc4[nH]c3=O)no2)c1
Papp: > 1000 ×10⁻⁶ cm/s

CN1CCc2cc3c(cc2C1)OCO3
Papp: 316 ×10⁻⁶ cm/s

CCCNC(=O)c1ccc2c(c1)ncn2-c1cc(C)cc(C)c1
Papp: > 1000 ×10⁻⁶ cm/s

CNc1cc(-c2nc(Nc3ccc(F)c(F)c3)c3ccccc3n2)ccn1
Papp: 257 ×10⁻⁶ cm/s

O=c1[nH]nc(Sc2ncc([N+](=O)[O-])s2)n1-c1ccc2c(c1)OCCO2
Papp: 137 ×10⁻⁶ cm/s

Cc1nc(Sc2nnnn2C)c2c(-c3ccccc3)csc2n1
Papp: 826 ×10⁻⁶ cm/s

Cc1nc2ccc(Nc3nc(-c4ccncc4)nc4ccccc34)cc2s1
Papp: 55.8 ×10⁻⁶ cm/s

Cc1c(CN(C)c2cc(C3CC(O)C3)nc(N)n2)[nH]c2ccccc12 (centres undefined)
Papp: < 1 ×10⁻⁶ cm/s

CCN(CC)CCNC(=O)c1c(C)[nH]c(/C=C2\C(=O)Nc3ccc(F)cc32)c1C
Papp: 235 ×10⁻⁶ cm/s

COC(=O)CNC(=O)c1nc(-c2ccccc2OC)c2ccccn12
Papp: > 1000 ×10⁻⁶ cm/s

CCOc1ccc(CCNC(=O)c2cc3c(s2)CCC3)cc1OCC
Papp: > 1000 ×10⁻⁶ cm/s

Cc1cc(N2CCN(c3ccccc3)CC2)nc(-n2nc(C)cc2C)n1
Papp: > 1000 ×10⁻⁶ cm/s

O=C(Nc1ncc(Cc2ccc(C(F)(F)F)cc2)s1)c1cnc(-c2ccccc2)[nH]1
Papp: < 1 ×10⁻⁶ cm/s

CCCN1CNc2c(c(=O)[nH]c(=S)n2CCc2ccc(OC)c(OC)c2)C1
Papp: 138 ×10⁻⁶ cm/s

COC(=O)c1ccnc(-c2cc(C(=O)Nc3ccc(C4(N)CC4)cc3)ccn2)c1
Papp: > 1000 ×10⁻⁶ cm/s

CCOC(=O)c1nnc(N[S+](=O)([O-])c2ccc(NC(=O)Cc3ccc(Cl)c(Cl)c3)cc2)s1
Papp: 1.1 ×10⁻⁶ cm/s

C[C@H]1CN(C(=O)Nc2ccc(F)cc2F)C[C@@H]1c1nc(-c2ccccc2)no1
Papp: > 1000 ×10⁻⁶ cm/s

CCOc1ccc(/C=C/c2nc3ccccc3n2S(=O)(=O)c2ccc(Br)cc2)cc1
Papp: 926 ×10⁻⁶ cm/s

Cc1cc(C)c(CNC(=O)c2nc(-c3cccc(CO)c3)cc3c2ccn3C)c(=O)[nH]1
Papp: > 1000 ×10⁻⁶ cm/s

Cc1noc(-c2cn(C3CCN(C(=O)c4ccc(OC(F)(F)F)cc4)CC3)nn2)n1
Papp: 10.2 ×10⁻⁶ cm/s

O=C1CCCC2=C1C(c1[nH]ncc1Cl)N=C(Nc1nc3cc([S+](=O)([O-])N4CCOCC4)ccc3o1)N2 (centres undefined)
Papp: 169 ×10⁻⁶ cm/s

COc1ccc(-c2nc(-c3c(C)noc3C)cc3c2cc(C)n3CCN(C)C)cc1OC
Papp: > 1000 ×10⁻⁶ cm/s

CC(=O)N1CCc2cc(S(=O)(=O)NCCC3=CCCCC3)ccc21
Papp: 444 ×10⁻⁶ cm/s

CS(=O)(=O)c1ccccc1-c1csc(N2CCC(C(N)=O)CC2)n1
Papp: 11.9 ×10⁻⁶ cm/s

CCOc1ccc(S(=O)(=O)NCc2cccnc2)cc1NC(=O)c1ccccc1F
Papp: 99 ×10⁻⁶ cm/s

Cc1ccc(C(=O)Nc2cccc(C(F)(F)F)c2)cc1Nc1nc(-c2cccnc2)nc2c1cnn2C
Papp: 283 ×10⁻⁶ cm/s

O=C1CCCC2=C1C(c1ccncc1Cl)N=C(Nc1nc3ccccc3o1)N2 (centres undefined)
Papp: 897 ×10⁻⁶ cm/s

CN(C)C(=O)NC1CCC(CCN2CCN(c3cccc(Cl)c3Cl)CC2)CC1 (centres undefined)
Papp: 514 ×10⁻⁶ cm/s

NC(=O)C1CCN(c2ncc(-c3cccc(F)c3)s2)CC1
Papp: 896 ×10⁻⁶ cm/s

COc1ccc(-n2nc(C3CCCN([S+](=O)([O-])c4cccc(C(F)(F)F)c4)C3)[nH]c2=O)cc1 (centres undefined)
Papp: 569 ×10⁻⁶ cm/s

CCN(CC)CCCCNc1ncc2cc(-c3c(Cl)cccc3Cl)c(NC(=O)NC(C)(C)C)nc2n1
Papp: > 1000 ×10⁻⁶ cm/s

COc1ccc2[nH]c(=O)c(-c3noc(-c4ccc(F)cc4)n3)cc2c1
Papp: 63 ×10⁻⁶ cm/s

CCCN1C(CC(C)C)=NS(=O)(=O)c2cc(NC(=O)c3ccco3)ccc21
Papp: 427 ×10⁻⁶ cm/s

COc1ccccc1Nc1ccnc(N2CCN(C(=O)c3ccc(C)cc3)CC2)n1
Papp: > 1000 ×10⁻⁶ cm/s

O=C(O)c1ccnc2cc(C(OCC3CCC(F)(F)CC3)c3ccccc3Cl)[nH]c12 (centres undefined)
Papp: 75.6 ×10⁻⁶ cm/s

CNc1ncc(-c2cccc3ccccc23)o1
Papp: > 1000 ×10⁻⁶ cm/s

Nc1c(C(=O)N2CCCCC2)sc(=S)n1-c1ccccc1
Papp: > 1000 ×10⁻⁶ cm/s

c1cc(-c2cc(-c3ccncc3)c3cncn3c2)c2[nH]ncc2c1
Papp: 25.1 ×10⁻⁶ cm/s

CN(C)[C@@H]1CCN(c2cccc(Nc3nn4c(=O)c5ccccc5nc4s3)c2)C1
Papp: 125 ×10⁻⁶ cm/s

CCOc1ccc(CCNC(=O)c2cc3sccc3n2C(C)C)cc1OCC
Papp: 897 ×10⁻⁶ cm/s

O=C(Cc1ccc(Cl)cc1)Nc1cnccc1C(=O)O
Papp: 7 ×10⁻⁶ cm/s

CCS(=O)(=O)N1CC(CC#N)(n2cc(-c3ncnc4[nH]ccc34)cn2)C1
Papp: 11.1 ×10⁻⁶ cm/s

Source: PubChem BioAssay AID1508612
